What was measured:
RA FLS [1] = test: RA FLS induction of gene expression in response to TNF and IL-1β (qPCR, ELISA); format: cell-based, human; conditions: for TNF- and IL-1-induced production of CXCL10 / TNF- and IL-1-induced production of IL6 / TNF- and IL-1-induced production of MMP13: 50 ng/ml TNFα or 2 ng/ml IL-1β with inhibitor for 24 hr
Description: FLS were obtained from the UCSD CTRI Biorepository. Each line was previously obtained from discarded synovial tissue of a different patient with RA at the time of synovectomy, as described previously (21). The diagnosis of RA conformed to American College of Rheumatology 1987 revised criteria(22). FLS were cultured in DMEM (Mediatech, Manassas, Va.) with 10% fetal bovine serum (FBS, Omega Scientific, Tarzana, Calif.), 2 mM L-glutamine, […] gentamicin, 100 units/ml of penicillin and […] streptomycin (Life Technologies, Carlsbad, Calif.) at 37° C. in a humidified 5% CO2 atmosphere. For all experiments, FLS were used between passages 4-10, and cells were synchronized in 0.1% FBS (serum-starvation media) for 48 hours prior to analysis or functional assays.
RNA was extracted using RNeasy Kits (Qiagen, Valencia, Calif.) or Trizol (Life Technologies). For lysis of FLS, adherent cells were first washed in PBS and then lysed in the culture plate. cDNA was synthesized using the SuperScript® III First-Strand Synthesis SuperMix (Life Technologies). qPCR was performed using a Roche Lightcycler 480 (Indianapolis, Ind.), with primer assays from SABiosciences/Qiagen. Reactions were measured in triplicate and data was normalized to the expression levels of the house-keeping gene glyceraldehyde 3-phosphate dehydrogenase (GAPDH) or RNA Polymerase II (RPII) (23).
(§1) FLS were treated with 2.5 uM PMO (Gene Tools, Philomath, OR) for 7 days. PMO was replaced in fresh culture medium after 3 days and in serum-starvation medium after 5 days.
Secreted human IL-6 and chemokine (C-X-C motif) ligand 10 (CXCL10) were measured using ELISAs from Biolegend (San Diego, Calif.).

RA FLS [2] = conditions: reference (40); cited from earlier work
RA FLS [3] = test: Death of RA FLS on treatment with FAK inhibitor; format: cell-based, human; conditions: at the concentrations used in these experiments
RA FLS [4] = test: Western blotting of RA FLS lysates (SRC, FAK, MAPK, AKT, NF-κB signaling); format: cell-based, human; conditions: 10 μM inhibitor vs DMSO
RA FLS [5] = test: Spreading and adhesion assay on fibronectin-coated coverslips; format: cell-based, human; conditions: 5% FBS, FIG. 2D
Description: as §1
Following treatment with PMO, equal numbers of live RA FLS were re-suspended in FLS medium containing 5% FBS and allowed to adhere onto coverslips coated with 20 μg/ml fibronectin (FN) at 37° C. for 15, 30 and 60 minutes. Cells were fixed in 4% para-formaldehyde for 5 minutes, permeabilized in 0.2% Triton X-100 for 2 minutes, and stained with 5 U/ml Alexa Fluor® 568 (AF 568)-conjugated phalloidin and 2 μg/ml Hoechst for 20 minutes (Life Technologies). Samples were imaged with an Olympus FV10i Laser Scanning Confocal Microscope (Olympus, Center Valley, Pa.). Using the FV10i acquisition software, each coverslip was separated into four nine-paneled mega-images. Each panel (1024×1024) was acquired with a 10× objective and then stitched together, through a 10% overlap, with the Olympus FluoView 1000 imaging software. Total cell number and cell areas for each panel were calculated using Image Pro Analyzer software (Media Cybernetics, Rockville, Md.).

RA FLS [6] = test: Survival and apoptosis assay (Annexin V / PI, FACS); format: cell-based, human; conditions: sera-starvation media or in the presence of PDGF (50 ng/ml, 24 hr); FIG. 2C
Description: as §1
Following treatment with PMO, RA FLS were washed and incubated for an additional 24 hoursr in serum-starvation media. Adherent and non-adherent cells were collected and stained with Annexin V-Alexa Fluor® 647 and propidium iodide (PI) according to the manufacturer's instructions (Biolegend, San Diego, Calif.). Cell fluorescence was assessed by FACS using a BD LSR-II (BD Biosciences), and counts and percentages of live (Annexin V−PI−), early apoptotic (Annexin V+PI−), or late apoptotic/necrotic (Annexin V+PI+) cells were obtained. Data was analyzed for statistical significance using the Chi-square test for independence.

RA FLS [7] = test: Western blotting of RA FLS lysates (SRC, FAK, MAPK, AKT, NF-κB signaling); format: cell-based, human
Description: as §1
Adherent cells were washed in PBS and then lysed in the culture plate in RIPA buffer (25 mM Tris-HCl pH 7.6, 150 mM NaCl, 1% NP-40, 1% sodium deoxycholate, 0.1% SDS) containing 1 mM phenylmethanesulfonyl fluoride, 10 ng/ml aprotinin, 10 μg/ml leupeptin, 10 μg/ml soybean trypsin inhibitor, 10 mM sodium orthovanadate, 5 mM sodium fluoride and 2 mM sodium pyrophosphate. Protein concentration of cell lysates was determined using the Pierce BCA Protein Assay Kit (Thermo Scientific, Rockford, Ill.).

[8] = 2.5 μM PMO for 7 d, then 2 ng/ml IL-1β for 24 hr, vs Ctl PMO, FIG. 1D
[9] = 2.5 μM PMO for 7 d, then 50 ng/ml TNF for 24 hr, vs Ctl PMO, FIG. 1D
[10] = RA FLS, 2.5 μM PMO for 7 d, FIG. 1D
[11] = RA FLS, RPTPα knockdown with PMO, FIG. 3B, 3C
[12] = basal conditions, PTPRA knockdown
[13] = unstimulated PMO-treated RA FLS, FIG. 3D
[14] = 2.5 μM PTPRA_2 PMO for 7 d, then 50 ng/ml TNF or 2 ng/ml IL-1 for 24 hr, FIGS. 8A-8B

## NC1(c2ccc(-c3nc4ccn5c(=O)[nH]nc5c4cc3-c3ccccc3)cc2)CCC1 [MK2206, reference compound]
RA FLS [1]; RA FLS, 2 ng/ml IL-1β with inhibitor for 24 hr, vs DMSO, qPCR, FIG. 4A
  IL-1β-induced expression of CXCL10: increased
RA FLS [1]; RA FLS, vs DMSO, qPCR, FIG. 4A
  TNF- and IL-1-induced production of CXCL10: did not dampen
  TNF- and IL-1-induced production of IL6: increased
  TNF- and IL-1-induced production of MMP13: did not dampen
RA FLS [2]
  RA FLS migration and invasiveness: attenuate

## CS(=O)(=O)c1cccc(CNc2nc(Nc3ccc4c(c3)CCC(=O)N4)ncc2C(F)(F)F)c1 [PF573228]
RA FLS [1]; RA FLS, vs DMSO, qPCR, FIG. 4A
  TNF- and IL-1-induced production of CXCL10: significantly decreased
  TNF- and IL-1-induced production of IL6: significantly decreased
  TNF- and IL-1-induced production of MMP13: significantly decreased
RA FLS [3]
  death of RA FLS: does not cause death
RA FLS [4]; 50 ng/ml TNF or 2 ng/ml IL-1β for 30 min
  p38-T180/Y185 phosphorylation: no effect
RA FLS [4]; 50 ng/ml TNF or 2 ng/ml IL-1β for 30 min, FIG. 4B
  TNF- and IL-1β-induced phosphorylation of JNK-T183/Y185: impaired
RA FLS [4]; FIG. 4B
  FAK-Y397 phosphorylation: impaired

## PTPRA PMO: cell-permeable antisense morpholino oligo (PMO) targeting PTPRA; probably SEQ ID NO:4, 5′ GACATTAAGGAATGCCTTACCCACA 3′ (assignment not stated) (morpholino, cell-permeable, chemistry not fully specified)
RA FLS [5]; cell area after 15, 30 and 60 min
  spreading on fibronectin-coated coverslips: impaired spreading
RA FLS [5]; cells per field after 15 min
  adherence of live cells to fibronectin-coated coverslips: less adherent
RA FLS [1]; [8]
  RA FLS production of CXCL10 in response to IL-1β: significantly reduced
  RA FLS production of IL6 in response to IL-1β: significantly reduced
  RA FLS production of MMP3 in response to IL-1β: significantly reduced
  RA FLS production of MMP13 in response to IL-1β: significantly reduced
RA FLS [1]; [9]
  RA FLS production of CXCL10 in response to TNF: significantly reduced
  RA FLS production of MMP13 in response to TNF: significantly reduced
RA FLS [1]; [10]
  expression of IL-1β receptor (IL1R): increased
  expression of TNF receptor (TNFRSF1A): no effect
RA FLS [6]
  apoptosis compared to control-treated cells: significantly increased
RA FLS [7]; RA FLS, PMO treatment, FIGS. 3B-3C
  TNF- and IL-1β stimulated phosphorylation of AKT-S473: reduced
RA FLS [7]; [11]
  TNF- and IL-1β-stimulated phosphorylation of JNK (T183/Y185): impaired
  TNF- and IL-1β-stimulated phosphorylation of p38-T180/Y182: impaired
RA FLS [7]; RA FLS, RPTPα knockdown with PMO, FIG. 3C
  phosphorylation of FAK-Y397: reduced
RA FLS [7]; [12]
  proteolytic processing of NFκB subunit p100 (ratio of p52:p100): unaffected
  proteolytic processing of NFκB subunit p105 (ratio of p50:p105): unaffected
RA FLS [7]; resting RA FLS, RPTPα knockdown with PMO, FIG. 3A
  phosphorylation of SRC-Y527: increased
RA FLS [7]; stimulation with TNF or IL-1β, FIG. 3B, 3C
  levels of IκBα following 10 minutes post-stimulation, Ctl vs PTPRA PMO-treated cells: similar
RA FLS [7]; [13]
  basal phosphorylation of IκB kinase (IKK)-αβ on Ser176/180: non-significant trend towards decreased
  basal phosphorylation of NFκB subunit p65 on Ser536: non-significant trend towards decreased
RA FLS [7]; unstimulated, PMO treatment
  levels of IκBα protein in resting RA FLS: modest decrease

## second PTPRA-targeted PMO: second PTPRA-targeted PMO of a different sequence; probably SEQ ID NO:5, 5′ GTGTCTCATCTGAAATCAAGACAAC 3′ (assignment not stated) (morpholino, cell-permeable, chemistry not fully specified)
RA FLS [1]; [14]
  effect on CXCL10 (reduced production, protein in supernatants by ELISA): confirmed
  effect on IL-6 (reduced production, protein in supernatants by ELISA): confirmed
